The nature of data set [1]: Stopped-flow kinetics of the Diels-Alder reaction with tetrazine 20. The class given is physicochemical. The settings on record: toward tetrazine 20, stopped flow, 25° C., 95:5 PBS:MeOH. How it is done:
The kinetics for the reaction of a-TCO derivative 14 toward a 3,6-dipyridyl-s-tetrazinyl succinamic acid derivative 20 were measured by stopped flow kinetics at 25° C. in 95:5 PBS:MeOH (FIG. 4A).
Stopped-flow kinetics measurements were performed on a SX18MV-R stopped-flow spectrophotometer (Applied Photophysics Ltd.) with temperature control (25° C.).
The reaction between 5-ax-hydroxy-5-eq-(2-hydroxyethyl)-trans-cyclooctene 14 and 3,6-dipyridyl-s-tetrazine-mono-succinamic acid 20 was monitored by a SX18MV-R stopped-flow spectrophotometer (Applied Photophysics Ltd.) at 325 nm by measuring the exponential decay of tetrazine under pseudo-first order conditions. Solutions of 14 (0.98, 1.46, 1.95, and 2.63 mM in 9:1 PBS/MeOH) and tetrazine (0.1 mM in PBS) were mixed in the stopped-flow spectrophotometer in equal volumes resulting in final concentrations of 0.49 mM, 0.73 mM, 0.97 mM, and 1.31 mM of 14 and 0.05 mM of tetrazine in 95:5 PBS/MeOH. Three independent samples were prepared for each TCO concentration and measurements were taken in duplicate every 0.1 ms for 0.1 sat 25° C. The observed rates kobs for each run were determined by nonlinear regression analysis of the data points using Prism software (Version 8.00, GraphPad Software Inc). The average kobs values were plotted against the concentrations of 14 to obtain the bimolecular rate constant k2 from the slope of the plot.
The observed rates (kobs) of 5-ax-hydroxy-5-eq-(2-hydroxyethyl)-trans-cyclooctene 14 (10-30 equivalents) and 3,6-dipyridyl-s-tetrazine-mono-succinamic acid 20 were measured using stopped-flow kinetics. The final concentrations of 14 after injection were (A) 0.49 mM, (B) 0.73 mM, (C) 0.97 mM, and (D) 1.31 mM and the concentration of tetrazine was 0.05 mM in 95:5 PBS/MeOH at 25° C. Duplicate measurements were obtained for three independent samples for each concentration of 14.
The reaction between 5-ax-hydroxy-trans-cyclooctene 4a and 3,6-dipyridyl-s-tetrazine-mono-succinamic acid 20 was monitored by a SX18MV-R stopped-flow spectrophotometer (Applied Photophysics Ltd.) at 325 nm by measuring the exponential decay of tetrazine under pseudo-first order conditions. Solutions of 4a (100, 200, 300, and 400 μM in 9:1 PBS/MeOH) and tetrazine (20 μM in PBS) were mixed in the stopped-flow […] 95:5 PBS/MeOH. Three independent samples were prepared for each TCO concentration and measurements were taken in duplicate every 0.1 ms for 0.2 s at 25° C. The observed rates kobs for each run were determined by nonlinear regression analysis of the data points using Prism software (Version 8.00, GraphPad Software Inc). The average kobs values were plotted against the concentrations of 4a to obtain the bimolecular rate constant k2 from the slope of the plot.
The observed rates (kobs) of 5-ax-hydroxy-trans-cyclooctene 4a (5-20 equivalents) and 3,6-dipyridyl-s-tetrazine-mono-succinamic acid 20 were measured using stopped-flow kinetics. […]

The conditions of data set [2]: 4a with a PEGylated amide of 20 in 100% H2O, previously measured (Darko et al.); cited from earlier work.
The nature of data set [3]: Stability in methanol-d4 (35 mM) by quantitative 1H NMR. The class given is physicochemical. The settings on record: 35 mM in methanol-d4, after 7 days. How it is done:
A solution of 14 (4.5 mg, 26 μmol) in methanol-d4 (750 μL) was monitored by quantitative ^1H NMR on a 600 MHz instrument to observe the decomposition of the trans-isomer over time. Methyl tert-butyl ether (3.1 μL, 26 μmol) was used as an internal standard. […] The results were plotted using Prism software (Version 8.00, GraphPad Software Inc). A waterfall plot of the ^1H NMR spectra is provided.
A solution of 4a (3.3 mg, 26 μmol) in methanol-d4 (750 μL) was monitored by quantitative ^1H NMR on a 600 MHz instrument to observe the decomposition of the trans-isomer over time. Methyl tert-butyl ether (3.1 μL, 26 μmol) was used as an internal standard. […] The results were plotted using Prism software (Version 8.00, GraphPad Software Inc). A waterfall plot of the ^1H NMR spectra is provided.

Data set [4] can be described thus: Stability with mercaptoethanol (25 mM) in phosphate buffered D2O, pD=7.4. The data set is classed as physicochemical. The conditions noted are these: 25 mM mercaptoethanol. How it is done:
(§1) Phosphate buffered D2O (pD=7.4) was prepared by combining anhydrous sodium dihydrogen phosphate (NaH2PO4, 77.1 mg) and anhydrous disodium hydrogen phosphate (Na2HPO4, 204.4 mg) with 20 mL of D2O to make a 0.1 M solution. The pD was measured on a Fisher Scientific AB15 Plus pH meter and pH values were converted to pD by adding 0.4 units. The pD was adjusted to 7.4 with DCI (35 wt. % in D2O) and NaOD (40 wt. % in D2O) as necessary.
TCO 14 (3.1 mg, 18 μmol) in a solution of mercaptoethanol in phosphate buffered D2O (720 μL, 18 μmol, 25 mM, pD=7.4) was monitored by quantitative 1H NMR on a 600 MHz instrument to observe the decomposition of the trans-isomer over time. Methyl tert-butyl ether (2.1 μL, 18 μmol) was used as an internal standard. After 4 hours, 93% of 14 remained and 49% of 14 remained after 20 hours. (FIG. 6C). The results were plotted using Prism software (Version 8.00, GraphPad Software Inc). A waterfall plot of the ^1H NMR spectra is provided.
TCO 4a (2.3 mg, 18 μmol) in a solution of mercaptoethanol in phosphate buffered D2O (720 μL, 18 μmol, 25 mM, pD=7.4) was monitored by quantitative 1H NMR on a 600 MHz instrument to observe the decomposition of the trans-isomer over time. Methyl tert-butyl ether (2.1 μL, 18 μmol) was used as an internal standard. After 4 hours, 89% of 4a and 49% of 4a remained after 20 hours. (FIG. 6C). The results were plotted using Prism software (Version 8.00, GraphPad Software Inc). A waterfall plot of the ^1H NMR spectra is provided.

Data set [5] is described as follows: Stopped-flow kinetics of the Diels-Alder reaction with tetrazine 20. The class given is physicochemical. The conditions noted are these: 4a, 10 μM tetrazine, 95:5 PBS/MeOH, 25° C., in s-1 (unit assumed).
The nature of data set [6]: Stability in phosphate buffered D2O, pD=7.4 (33 mM) by quantitative 1H NMR. The class given is physicochemical. How it is done:
as §1
A solution of 14 (4.3 mg, 25 μmol) in phosphate buffered D2O (750 μL, pD=7.4) was monitored by quantitative ^1H NMR on a 600 MHz instrument to observe the decomposition of the trans-isomer over time. Methyl tert-butyl ether (3.0 μL, 26 μmol) was used as an internal standard. After 1 day, 90% of 14 remained and after 5 days, 39% remained (FIG. 6B). The results were plotted using Prism software (Version 8.00, GraphPad Software Inc). A waterfall plot of the ^1H NMR spectra is provided.
A solution of 4a (3.2 mg, 25 μmol) in phosphate buffered D2O (750 μL, pD=7.4) was monitored by quantitative ^1H NMR on a 600 MHz instrument to observe the decomposition of the trans-isomer over time. Methyl tert-butyl ether (3.0 μL, 26 μmol) was used as an internal standard. After 1 day, 85% of 4a remained and after 5 days, 35% remained (FIG. 6B). The results were plotted using Prism software (Version 8.00, GraphPad Software Inc). A waterfall plot of the ^1H NMR spectra is provided.

For data set [7] the following is noted: toward 20; no kinetic example for 4b in the patent, FIG. 4A footnotes cite earlier measurements in 100% H2O; cited from earlier work.
The subject of data set [8] is cellular protein sulfenic acids. The settings on record: generally; not under the conditions of intracellular bioorthogonal chemistry (generally ≤10 μM); cited from earlier work.

Where only a bound is given, the exact number is not on record here.

Results on three compounds are retold here after US20230331652A1, “TRANS-CYCLOOCTENES WITH HIGH REACTIVITY AND FAVORABLE PHYSIOCHEMICAL PROPERTIES” (University of Delaware, priority 2020, published 2023).

Consider `OC1CC/C=C/CCC1` (stereo not drawn) [Compound 4a, 5-ax-Hydroxy-trans-cyclooctene], for which the “second-order rate constant k2” value in data set [1] is listed as 70,000±1800 M^−1s^−1. Moreover, the k2 in data set [2] was 80,200. Besides, the “decomposition of the trans-isomer” value in data set [3] is reported as “no observable decomposition”. Further, the TCO remaining worked out at 89% in data set [4] (phosphate buffered D2O pD 7.4, 4 hours); 49% in data set [4] (phosphate buffered D2O pD 7.4, 20 hours); 85% in data set [6] (phosphate buffered D2O pD 7.4, 1 day (24 h), room temperature); 35% in data set [6] (phosphate buffered D2O pD 7.4, 5 days). Besides, the Kobs in data set [5] (Table 2 head A (0.49 mM)) is 3.407; in data set [5] (Table 2 head B (0.73 mM)) it was 6.966; in data set [5] (Table 2 head C (0.97 mM)) it was 10.09; in data set [5] (Table 2 head D (1.31 mM)), 13.86.

On to `OC1CC/C=C/CCC1` (stereo not drawn) [Compound 4b, equatorial-5-hydroxy-trans-cyclooctene], for which the “second-order rate constant k2 (equatorial isomer, comparison value)” value in data set [7] is on record as 22,400±40 M^−1s^−1.

Turning to `C#CCC1(O)CC/C=C/CCC1` (stereo not drawn) [Compound 5, 5-ax-Hydroxy-5-eq-propargyl-trans-cyclooctene], the “TCO concentration at which sulfenic acids are modified” value in data set [8] is at least 500 µM.
